Measurements as given in the NIST ThermoML archive (doi:10.1016/j.tca.2014.03.004).

Assay: mn = molality of the nth substance listed, in mol/kg
Details: 101.3 kPa, Liquid; for speed of sound: Sing-around technique in a fixed-path interferometer; for mass density: Vibrating tube method

N[C@@H](CCC(=O)O)C(=O)O [L-glutamic acid] + O
Details | mass density, m1 = 0.01 [kg/m3] | mass density, m1 = 0.02 [kg/m3] | mass density, m1 = 0.03 [kg/m3] | mass density, m1 = 0.04 [kg/m3] | mass density, m1 = 0.05 [kg/m3] | speed of sound, m1 = 0.01 [m/s] | speed of sound, m1 = 0.02 [m/s] | speed of sound, m1 = 0.03 [m/s] | speed of sound, m1 = 0.04 [m/s] | speed of sound, m1 = 0.05 [m/s]
298.15 K | 997.642 | 998.213 | 998.786 | 999.352 | 999.936 | 1497.4 | 1498.1 | 1498.9 | 1499.6 | 1500.3
308.15 K | 994.598 | 995.178 | 995.742 | 996.302 | 996.73 | 1520.4 | 1521 | 1521.8 | 1522.3 | 1523.2
318.15 K | 990.784 | 991.318 | 991.875 | 992.445 | 993.001 | 1537 | 1537.7 | 1538.1 | 1539 | 1539.3

N[C@@H](Cc1ccc(O)cc1)C(=O)O [3-(p-hydroxyphenyl)-L-alanine] + O
Details | mass density, 298.15 K [kg/m3] | mass density, 308.15 K [kg/m3] | mass density, 318.15 K [kg/m3] | speed of sound, 298.15 K [m/s] | speed of sound, 308.15 K [m/s] | speed of sound, 318.15 K [m/s]
m1 = 0.000125 | 997.061 | 994.051 | 990.231 | 1496.6 | 1519.6 | 1536.3
m1 = 0.00025 | 997.068 | 994.058 | 990.238 | 1496.8 | 1519.7 | 1536.5
m1 = 0.0005 | 997.082 | 994.072 | 990.251 | 1496.7 | 1519.8 | 1536.3
m1 = 0.001 | 997.112 | 994.101 | 990.278 | 1497.2 | 1519.7 | 1536.8
m1 = 0.00125 | 997.125 | 994.114 | 990.29 | 1496.8 | 1520.2 | 1536.4
m1 = 0.0015 | 997.138 | 994.126 | 990.301 | 1496.8 | 1519.8 | 1536.4
m1 = 0.002 | 997.168 | 994.152 | 990.318 | 1496.8 | 1519.8 | 1536.5
